# Assay results as given in ChEMBL document CHEMBL3091372, “Design, synthesis, and biological testing of novel naphthoquinones as substrate-based inhibitors of the quinol/fumarate reductase from Wolinella succinogenes” (J Med Chem, 2013).
# Activity calls are given as the source filed them. No cut-off for these calls is given here.
# Columns and labels:
# Wolinella succinogenes [1] = test: Inhibition of Wolinella succinogenes quinol/fumarate reductase at 20 uM
# Wolinella succinogenes [2] = test: Inhibition of Wolinella succinogenes succinate/quinone reductase at 20 uM
# [3] = Inhibition of Wolinella succinogenes quinol/fumarate reductase
# [4] = Inhibition of Wolinella succinogenes succinate/quinone reductase
# [5] = target: T1, NAD(P)H dehydrogenase [quinone] 1 (Rattus norvegicus) (UniProt P05982); test: Inhibition of rat DT-diaphorase assessed as reduction of cytochrome c at 2 uM
# T1 sequence (whole entry): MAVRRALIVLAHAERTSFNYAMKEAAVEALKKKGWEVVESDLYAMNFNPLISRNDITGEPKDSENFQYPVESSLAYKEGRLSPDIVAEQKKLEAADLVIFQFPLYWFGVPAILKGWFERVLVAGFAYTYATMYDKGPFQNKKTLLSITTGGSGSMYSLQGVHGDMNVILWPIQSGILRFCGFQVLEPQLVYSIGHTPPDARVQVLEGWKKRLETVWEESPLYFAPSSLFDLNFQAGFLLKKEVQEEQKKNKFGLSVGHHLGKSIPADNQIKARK
inhibition activity (active/not active) (Wolinella succinogenes [1]),inhibition call (active/not active) (Wolinella succinogenes [2]),IC50 [3] [µM],IC50 [4] [µM],inhibition [5],SMILES
Active,Active,,,,CCCCCCC1=C(O)C(=O)c2ccccc2C1=O
Active,Active,,,,CCCCCCC1=C(OC)C(=O)c2ccccc2C1=O
Active,Active,,,,O=C1C(O)=C(CCCCC2CCCCC2)C(=O)c2ccccc21
Active,Active,0.612,0.604,inactive,CCC1=C(Br)C(=O)c2ccccc2C1=O
Active,Active,,,,CC(C)(C)CC1=C(O)C(=O)c2ccccc2C1=O
Active,Active,,,,O=C1C=C(O)C(=O)c2ccccc21
inactive,inactive,,,,CCCCCCCCCOC1=CC(=O)C(=O)c2ccccc21
Active,Active,,,,CCC1=C(O)C(=O)c2ccccc2C1=O
Active,Active,,,,CCCCCCCCCCC1=C(Br)C(=O)c2ccccc2C1=O
Active,Active,0.061,1.09,inactive,CC1=C(Br)C(=O)c2ccccc2C1=O
Active,Active,,,,CCCCCCCCCOC1=CC(=O)c2ccccc2C1=O
Active,Active,,,,CC1=C(O)C(=O)c2ccccc2C1=O
Active,Active,,,,CCCCCCCCCCCCCCC1=C(O)C(=O)c2ccccc2C1=O
Active,Active,,,,O=C1C(O)=C(CCCc2ccccc2)C(=O)c2ccccc21
Active,Active,,,,CCC1=C(OC)C(=O)c2ccccc2C1=O
Active,Active,,,,CCCCCCCCCCC1=C(O)C(=O)c2ccccc2C1=O
Active,Active,,,,CCCCCCC1=C(Br)C(=O)c2ccccc2C1=O
inactive,inactive,,,,O=C1C(O)=C(CCCCCCCCCCBr)C(=O)c2ccccc21
inactive,inactive,,,,CC(C)(O)CCC1=C(O)C(=O)c2ccccc2C1=O
Active,Active,,,,CCCCCCCCCCC1=C(OC)C(=O)c2ccccc2C1=O
Active,Active,,,,O=C1C(O)=C(CCCC2CCCCC2)C(=O)c2ccccc21
